Results on 21 compounds are retold here after ChEMBL document CHEMBL2169810, “Carbamoylphosphonates control tumor cell proliferation and dissemination by simultaneously inhibiting carbonic anhydrase IX and matrix metalloproteinase-2. Toward nontoxic chemotherapy targeting tumor microenvironment” (J Med Chem, 2012).

One series has as its target Carbonic anhydrase 9 (Homo sapiens, UniProt Q16790). In words: Inhibition of human Carbonic anhydrase 9-mediated CO2 hydration by stopped-flow method.
The next series addresses Carbonic anhydrase 12 (Homo sapiens, UniProt O43570). As to the kind of experiment: Inhibition of human Carbonic anhydrase 12-mediated CO2 hydration by stopped-flow method.
Another series addresses Carbonic anhydrase 2 (Homo sapiens, UniProt P00918). In words: Inhibition of human Carbonic anhydrase 2-mediated CO2 hydration by stopped-flow method.
In the next series the target is Carbonic anhydrase 1 (Homo sapiens, UniProt P00915). As to the kind of experiment: Inhibition of human Carbonic anhydrase 1-mediated CO2 hydration by stopped-flow method.
The target of series [1] is T1, 72 kDa type IV collagenase (Homo sapiens, UniProt P08253). In words: Inhibition of MMP2.
In series [2] the test system is B16-F10. As to the kind of experiment: Antimetastatic activity against mouse B16F10 cells xenografted in C57BL mouse assessed as decrease in lung metastasis at 25 mg/kg, ip administered QD measured after 21 days. More on the design: scale not given: the % may be the effect or the level left. The following applies: route intraperitoneal. In kind it is functional.
The test system of series [3] is B16-F10. In words: Antimetastatic activity against mouse B16F10 cells xenografted in C57BL mouse assessed as decrease in lung metastasis at 12.5 mg/kg, ip administered QD measured after 21 days. The following applies: route intraperitoneal. Also noted: scale not given: the % may be the effect or the level left. In kind it is functional.
Series [4] relates to B16-F10. As to the kind of experiment: Antimetastatic activity against mouse B16F10 cells xenografted in C57BL mouse assessed as decrease in lung metastasis at 50 mg/kg, po administered QD measured after 21 days. The series is classed as functional. Also noted: scale not given: the % may be the effect or the level left.
The test system of series [5] is B16-F10. In words: Antimetastatic activity against mouse B16F10 cells xenografted in C57BL mouse assessed as decrease in lung metastasis at 50 mg/kg, ip administered QD measured after 21 days. The series is classed as functional. More on the design: scale not given: the % may be the effect or the level left. The following applies: route intraperitoneal.
Series [6] deals with T1, 72 kDa type IV collagenase. As to the kind of experiment: Inhibition of human recombinant MMP2 measured every 5 mins for 3 hrs.
A further series concerns Hydroxyapatite. In words: Binding affinity to bone mineral hydroxyapatite at 100 uM after 17 hrs.
Series [7] in a line: Half life in Sprague-Dawley rat at 33 mg/kg, iv. The series is classed as ADME, organism-based. More on the design: dose 33 mg/kg, route intravenous. The following applies: in vivo.
Series [8] can be described thus: Volume of distribution at steady state in Sprague-Dawley rat at 33 mg/kg, iv. The series is classed as ADME, organism-based. Also noted: dose 33 mg/kg, route intravenous. The following applies: in vivo, read-out: Vdss.
Series [9] has as its system HeLa. In words: Cytotoxicity against human HeLa cells assessed as increase in LDH level up to 100 uM after 24 hrs in normoxic condition by spectrophotometric analysis relative to control. The series is classed as cell-based.
The test system of series [10] is HT-1080. As to the kind of experiment: Cytotoxicity against human HT1080 cells assessed as increase in LDH level up to 100 uM after 24 hrs in normoxic condition by spectrophotometric analysis relative to control. In kind it is cell-based. The following applies: ht-1080, 24 h.
Series [11] deals with HT-1080. In words: Cytotoxicity against human HT1080 cells assessed as increase in LDH level after 24 hrs in hypoxic condition by spectrophotometric analysis relative to control. The series is classed as functional, cell-based.
The subject of series [12] is HeLa. In words: Cytotoxicity against human HeLa cells assessed as increase in LDH level after 24 hrs in hypoxic condition by spectrophotometric analysis relative to control. The series is classed as functional, cell-based.
Series [13] has as its system HT-1080. As to the kind of experiment: Cytotoxicity against human HT1080 cells assessed as increase in LDH level at 1 uM after 24 hrs in hypoxic condition by spectrophotometric analysis relative to control. The series is classed as functional.
The test system of series [14] is HT-1080. In words: Cytotoxicity against human HT1080 cells assessed as increase in LDH level at 10 uM after 24 hrs in hypoxic condition by spectrophotometric analysis relative to control. In kind it is functional.
The subject of series [15] is HeLa. As to the kind of experiment: Cytotoxicity against human HeLa cells assessed as increase in LDH level at 50 uM after 24 hrs in hypoxic condition by spectrophotometric analysis relative to control. In kind it is functional.
Series [16] concerns HT-1080. As to the kind of experiment: Cytotoxicity against human HT1080 cells assessed as increase in LDH level at 50 uM after 24 hrs in hypoxic condition by spectrophotometric analysis relative to control. In kind it is functional.

Chain of Carbonic anhydrase 1 (P00915 whole entry): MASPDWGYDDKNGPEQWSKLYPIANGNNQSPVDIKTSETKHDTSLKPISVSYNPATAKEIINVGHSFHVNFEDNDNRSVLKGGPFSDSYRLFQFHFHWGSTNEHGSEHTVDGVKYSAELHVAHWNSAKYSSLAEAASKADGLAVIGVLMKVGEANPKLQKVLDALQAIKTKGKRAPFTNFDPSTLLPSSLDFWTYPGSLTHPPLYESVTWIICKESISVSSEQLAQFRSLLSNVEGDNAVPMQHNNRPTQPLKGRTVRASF
Chain of Carbonic anhydrase 12 (O43570 whole entry): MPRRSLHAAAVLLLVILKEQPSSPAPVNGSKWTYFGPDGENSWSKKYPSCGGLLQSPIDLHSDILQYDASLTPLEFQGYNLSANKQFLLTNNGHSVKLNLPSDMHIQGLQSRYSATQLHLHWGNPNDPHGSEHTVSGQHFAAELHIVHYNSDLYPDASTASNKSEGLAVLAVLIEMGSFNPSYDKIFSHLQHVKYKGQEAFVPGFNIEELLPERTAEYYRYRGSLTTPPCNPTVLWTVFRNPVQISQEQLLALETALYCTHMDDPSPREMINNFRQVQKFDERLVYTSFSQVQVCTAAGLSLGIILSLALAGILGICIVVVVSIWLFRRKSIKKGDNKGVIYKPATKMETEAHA
T1 sequence (P08253 whole entry): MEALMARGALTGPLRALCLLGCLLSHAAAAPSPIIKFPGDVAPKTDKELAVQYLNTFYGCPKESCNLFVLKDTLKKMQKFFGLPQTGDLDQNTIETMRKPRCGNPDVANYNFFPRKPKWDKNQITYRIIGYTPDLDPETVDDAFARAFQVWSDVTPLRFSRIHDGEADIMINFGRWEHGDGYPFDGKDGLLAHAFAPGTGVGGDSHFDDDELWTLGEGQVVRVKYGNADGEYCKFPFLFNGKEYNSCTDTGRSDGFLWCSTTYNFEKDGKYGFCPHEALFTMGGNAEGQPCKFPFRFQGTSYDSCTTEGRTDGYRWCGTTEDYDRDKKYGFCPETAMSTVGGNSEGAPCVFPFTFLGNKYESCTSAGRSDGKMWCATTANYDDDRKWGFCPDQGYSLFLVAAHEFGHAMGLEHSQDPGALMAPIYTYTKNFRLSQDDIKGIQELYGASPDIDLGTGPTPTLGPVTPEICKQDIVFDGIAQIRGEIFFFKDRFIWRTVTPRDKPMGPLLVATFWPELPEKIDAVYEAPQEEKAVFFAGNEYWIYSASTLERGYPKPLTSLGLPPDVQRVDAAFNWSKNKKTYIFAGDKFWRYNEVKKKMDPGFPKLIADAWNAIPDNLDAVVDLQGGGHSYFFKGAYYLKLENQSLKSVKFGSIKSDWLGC

For orientation: IC50 means the concentration that inhibits the measured activity by half. Take `O=C(NCCNC(=O)P(=O)(O)O)c1ccc(Oc2ccccc2)cc1`: the IC50 on Carbonic anhydrase 9 is 9.9 µM; on Carbonic anhydrase 12 it was 8.6 µM; against Carbonic anhydrase 2 it was 0.61 µM; on Carbonic anhydrase 1, 0.62 µM; in series [1] it was 20 µM.
Consider `N[C@H]1CCCC[C@@H]1NC(=O)P(=O)(O)O`, for which the IC50 on Carbonic anhydrase 9 turned out to be 7.14 µM; on Carbonic anhydrase 12, 8.26 µM; against Carbonic anhydrase 2, 8.28 µM; on Carbonic anhydrase 1, 8.24 µM.
For `O=C(NCCCCNC(=O)P(=O)(O)O)P(=O)(O)O`, the IC50 was 9.1 µM against Carbonic anhydrase 9, 6.02 µM against Carbonic anhydrase 12, 8.82 µM at Carbonic anhydrase 2 and 9.74 µM against Carbonic anhydrase 1.
In general, half-life refers to the time needed for the level to fall by half in the phase considered. Turning to `O=C(NCCCCCNS(=O)(=O)c1ccc(Oc2ccccc2)cc1)P(=O)(O)O`, the Activity is reported as 76% with B16-F10 [2]; 57% with B16-F10 [3]; 80% in the series with B16-F10 [4]; 90% with B16-F10 [5]; “Non-toxic” in the series on HeLa [9]; “Non-toxic” in the series on HT-1080 [10]. For the same compound, the Activity entry in the series with HT-1080 [11] and in the series on HeLa [12] was “Dose-dependent effect” in each case. Besides, the half-inhibitory concentration (IC50) at Carbonic anhydrase 9 is 6.3 µM; against Carbonic anhydrase 12, 5.7 µM; against Carbonic anhydrase 2, 0.31 µM; against Carbonic anhydrase 1, 0.52 µM; in series [6] it was 4 µM. This compound also displayed a Drug absorption in the series with Hydroxyapatite of 44%. For the same compound, the half-life in series [7] was 9 h. Moreover, the Vd in series [8] was 1.65 L/kg. Moreover, the “fold change (FC)” value is on record as 1 in the series with HT-1080 [13], 1.5 in the series on HT-1080 [14], 1.3 in the series with HeLa [15] and 2.3 in the series on HT-1080 [16].
With `O=C(NCC1CCCCC1)P(=O)(O)O` [CYCLOHEXYLMETHYLCARBAMOYLPHOSPHONIC ACID], the IC50 against Carbonic anhydrase 9 worked out at 8.59 µM; on Carbonic anhydrase 12 it was 7.44 µM; at Carbonic anhydrase 2 it was 9.23 µM; on Carbonic anhydrase 1, 7.36 µM.
For `O=C(NCCN1CCCC1)P(=O)(O)O`, the IC50 against Carbonic anhydrase 9 turned out to be 8.8 µM; on Carbonic anhydrase 12, 5.43 µM; on Carbonic anhydrase 2, 9.66 µM; at Carbonic anhydrase 1, 9.43 µM.
For `O=C(NCCNS(=O)(=O)c1ccc(Oc2ccccc2)cc1)P(=O)(O)O`, in that order: 7 µM, 6.9 µM, 0.82 µM and 0.98 µM.
As for `O=C(NCCCCCCNS(=O)(=O)c1ccc(Oc2ccccc2)cc1)P(=O)(O)O`, the Activity in the series on B16-F10 [2] was 90%; in the series on B16-F10 [3] it was 82%; in the series on B16-F10 [4], 50%; in the series on HeLa [9], “Non-toxic”; in the series with HT-1080 [10] it was “Non-toxic”; in the series on HT-1080 [11], “Dose-dependent effect”. In addition, the Activity entry in the series with HeLa [12] is “Dose-dependent effect”. Besides, the IC50 at Carbonic anhydrase 9 is 7 µM; on Carbonic anhydrase 12 it was 6.2 µM; against Carbonic anhydrase 2 it was 0.1 µM; against Carbonic anhydrase 1, 0.38 µM; in series [6], 4 µM. Moreover, the “fold change (FC)” value in the series on HT-1080 [13] was 1; in the series on HT-1080 [14], 1.3; in the series with HT-1080 [16], 1.9.
Take `O=C(NCCCNS(=O)(=O)c1ccc(Oc2ccccc2)cc1)P(=O)(O)O`: the IC50 against Carbonic anhydrase 9 was 6.8 µM; against Carbonic anhydrase 12, 6.4 µM; at Carbonic anhydrase 2, 0.58 µM; on Carbonic anhydrase 1, 0.71 µM.
Consider `O=C(NC1CCCC1)P(=O)(O)O` [(CYCLOPENTYLAMINO)CARBONYLPHOSPHONIC ACID], for which the Activity in the series on B16-F10 [4] was 80%; with B16-F10 [5] it was 86%. The IC50 was determined as 8.97 µM at Carbonic anhydrase 9, 7.26 µM on Carbonic anhydrase 12, 7.41 µM against Carbonic anhydrase 2 and 8.79 µM against Carbonic anhydrase 1.
As for `CCC(CC)NC(=O)P(=O)(O)O`, the IC50 at Carbonic anhydrase 9 was found to be 8.26 µM; against Carbonic anhydrase 12 it was 4.65 µM; against Carbonic anhydrase 2, 8.79 µM; against Carbonic anhydrase 1, 6.71 µM.
For `O=C(NCCc1ccccc1)P(=O)(O)O` [PHENETHYLCARBAMOYLPHOSPHONIC ACID], in that order: 6.08 µM, 5.44 µM, 8 µM and 7.68 µM.
On the same counts, the results for `CCOP(=O)(OCC)C(=O)NCCCCNC(=O)P(=O)(OCC)OCC` are 9.65 µM, 2.72 µM, 9.59 µM and 9.7 µM.
As to `O=C(NCCCCNS(=O)(=O)c1ccc(Oc2ccccc2)cc1)P(=O)(O)O`, the IC50 stood at 6.1 µM against Carbonic anhydrase 9, 5.6 µM against Carbonic anhydrase 12, 0.1 µM on Carbonic anhydrase 2 and 0.75 µM against Carbonic anhydrase 1.
On the same counts, the results for `O=C(NC1CCCCC1)P(=O)(O)O` [(CYCLOHEXYLAMINO)CARBONYLPHOSPHONIC ACID] are 8.89 µM, 5.59 µM, 8.81 µM and 7.89 µM.
For `N[C@@H]1CCCC[C@@H]1NC(=O)P(=O)(O)O`, in that order: 8.6 µM, 6 µM, 1.32 µM and 1.6 µM.
For the compound `CC(C)NC(=O)P(=O)(O)O` [(ISOPROPYLAMINO)CARBONYLPHOSPHONIC ACID], the IC50 worked out at 8.3 µM against Carbonic anhydrase 9, 7.27 µM on Carbonic anhydrase 12, 13.9 µM against Carbonic anhydrase 2 and 8.81 µM against Carbonic anhydrase 1.
On the same counts, the results for `C[C@H](NC(=O)P(=O)(O)O)C1CCCCC1` are 6.36 µM, 6.64 µM, 9.45 µM and 5.31 µM.
On the same counts, the results for `O=C(NCCN1CCCCC1)P(=O)(O)O` are 9 µM, 7.64 µM, 8.6 µM and 7.82 µM.
On the same counts, the results for `C[C@@H](NC(=O)P(=O)(O)O)C1CCCCC1` are 8.12 µM, 6.97 µM, 8.85 µM and 6.78 µM.
As to `O=C(NC1CCCCCCC1)P(=O)(O)O` [(CYCLOOCTYLAMINO)CARBONYLPHOSPHONIC ACID], the IC50 against Carbonic anhydrase 9 is 9.14 µM; on Carbonic anhydrase 12, 7.99 µM; against Carbonic anhydrase 2 it was 7.89 µM; against Carbonic anhydrase 1, 8.02 µM.
